Values quoted from earlier work, collected in patent US20110178105A1, “CLINICAL BENEFITS OF EICOSAPENTAENOIC ACID IN HUMANS” (E.I. DU PONT DE NEMOURS AND COMPANY, priority 2010, published 2011).

Settings: human, in vivo; cited from earlier work

Substance: vitamin E
- benefit in post-myocardial infarction patients: no benefit
